# Tests used:
# [1] = Dissolution test in pH 7.4 PBS at 37° C.; assay type: physicochemical; settings: for Release of EGCG in the first 20 minutes: 20 mg EGCG equivalent in 100 mL; for Visible solids during dissolution test: up to 24 hours
# Protocol: As an initial proposition, the dispersions, aEGCG and cEGCG were modeled with respect to pseudo-second order models according to equation 1 where t is time, Q is cumulative release, and Qe the final release and, and k2 the rate constant of pseudo-second order kinetics.
# Dissolution testing was performed in 100 mL of standard phosphate-buffered salines (pH 7.4) at 37° C. in a jacketed beaker. The temperature was precisely controlled by a Julabo Heating Circulator. EGCG concentration in the solution was in-situ monitored via an Ocean Optics USB2000+UV-VIS spectrometer equipped with an RT-2MM Dip Probe. The testing was performed with continuous stirring until all solids were dissolved and the medium was free of observable particles, or up to 24 hours. For early period of dissolution, the data acquisition density was relatively large to capture all sudden changes; while at later periods, the data acquisition frequency was reduced due to slow evolution in the medium. For each material, an equivalency of 20 mg EGCG was tested and the experiment was monitored until all solids were dissolved or up to 24 hours. Based on the dissolution data, all EGCG (˜20 mg) were released into the medium within the period of dissolution tests for all samples.
# [2] = Stability of dispersions of varying weight ratios, about 40° C./75% RH/30 days; assay type: physicochemical
# Protocol: For the four polymers identified, further stress tests were carried out on dispersions with varying weight ratios of EGCG to polymer as set forth in Example 8. In these experiments, stressing was done for 30 days at 75% relative humidity at 40° C. for 30 days. FIGS. 50-63 are the XRPD patterns of the prepared dispersions prior to stressing. FIGS. 75-78 are the XRPD patterns after stressing and these too show the samples to amorphous by XRPD. FIGS. 82, 83, and 85 show a peak indicative of NaCl, which is used in the salt both of the humidity chamber storing the samples. Thus, such a peak is not indicative of any crystalline EGCG in the corresponding dispersions. […] Based on the XRPD results, the post-stressing dispersions were x-ray amorphous (other than the NaCl peaks).
# 20 capsules of Teavigo™ were broken and the solids were suspended in ˜300 mL HPLC grade water and filtered to remove the solids. The resultant solution was clear with no evidence of solid particles observed. The solution was then dried under N2 purge until water is fully removed based on visual observation. Such generated EGCG solids were directly used for generating amorphous EGCG and solid dispersions.
# EGCG solid dispersions were prepared by lyophilization using four polymers including HPMC-AS, HPMC-P, Soluplus®, and cellulose acetate. Individual solutions of polymer (in dioxane) and EGCG (in water) were prepared. The EGCG aqueous solution was added into the polymer-dioxane solution slowly. Additional fresh dioxane were added into the samples followed by vigorous vortexing to reach a clear solution without visible solids or colloids.
# For lyophilization, each EGCG/polymer solution was frozen in a cold bath of dry ice/acetone (at a temperature of −78° C.). The sample vial was then kept in a lyophilizer at −30° C. for 1 day, −10° C. for 2 days, 0° C. for 1 day, and then 20° C. for 4 hours. Pure EGCG aqueous solution was lyophilized as well to generate amorphous EGCG (EGCG) as a reference material for comparison with the dispersions. The lyophilized materials are free flowing materials.
# [3] = Stress test at about 40° C./75% RH for 11 days; assay type: physicochemical
# Protocol: The physical stability of aEGCG and the four dispersions were evaluated at different conditions including a typical stress condition of 40° C./75% RH for 11 days, and in media of SGF and SIF for 24 h. Table 1 summarizes the visual observations on the materials after they have been stressed at 40° C./75% RH for 11 days. The aEGCG became a hard material after stress, while all the dispersions were particles or soft aggregates.
# XRPD patterns were collected with a PANalytical X'Pert PRO MPD diffractometer using an incident beam of Cu radiation produced using an Optix long, fine-focus source. An elliptically graded multilayer mirror was used to focus Cu Kα X-rays through the specimen and onto the detector. Prior to the analysis, a silicon specimen (NIST SRM 640e) was analyzed to verify the observed position of the Si 111 peak is consistent with the NIST-certified position. A specimen of the sample was sandwiched between 3-μm-thick films and analyzed in transmission geometry. A beam-stop, short antiscatter extension, and antiscatter knife edge were used to minimize the background generated by air. Soller slits for the incident and diffracted beams were used to minimize broadening from axial divergence. Diffraction patterns were collected using a scanning position-sensitive detector (X'Celerator) located 240 mm from the specimen and Data Collector software v. 2.2b. […]
# [4] = Stress tests in simulated GI tract media (SGF and SIF), observed under PLM; assay type: physicochemical
# Protocol: For stress testing in media, solids of aEGCG and the dispersions were suspended in SGFs and SIFs (see Example 6), and the suspensions were observed under polarized light microscope from time to time to look for the evidence of birefringence and extinction (B/E) of the materials, which is the indication of the occurrence of crystallization in a material.
# Polarized light microscopy (PLM) was performed using a Leica DM LP microscope with cross polarizer. SEM was performed using a FEI Quanta 200 scanning electron microscope equipped with an Everhart Thornley (ET) detector. Images were collected and analyzed using xTm (v. 2.01) and XT Docu (v. 3.2) software, respectively. The thermogravimetric analyses (TGA) were performed using a TA Instruments Q5000 IR thermogravimetric analyzer. Each sample was placed in an aluminum sample pan and inserted into the TGA furnace. The furnace was first equilibrated at 25° C., and then heated under N2 at a rate of 10° C./min, up to a final temperature of 350° C. Modulated differential scanning calorimetry (mDSC) data were obtained on a TA Instruments Q2920 differential scanning calorimeter equipped with a refrigerated cooling system (RCS). The test was progressed by modulating temperature±0.8° C. every 60 seconds from 0 to 180° C. The reported glass transition temperature (Tg) is obtained from the inflection point of the step change in the reversing heat flow versus temperature curve.
# Solids were suspended in media including simulated gastric fluid (SGF) and simulated intestinal fluid (SIF), and observed under PLM from time to time up to 24 hours for evidence of crystallization indicative by the appearance of birefringence/extinctions. Because of the high solubility of aEGCG, more materials were suspended into the media compared with the dispersions.
# [5] = cited from earlier work
# [6] = values as low as; rodents and humans; cited from earlier work
SMILES,Release of EGCG in the first 20 minutes [1],Visible solids during dissolution test [1],"XRPD of post-stressing solids ([2]; 40° C./75% RH, 30 days)","Color after stress ([2]; 40° C./75% RH, 30 days, visual observation)","Color as generated ([2]; before stress, visual observation)",Release profile (in words) [1],Visual observation after stress [3],XRPD of post-stress samples [3],"Time to crystallization in SGF ([4]; suspended in SGF, PLM) [min]","Time to crystallization in SIF ([4]; suspended in SIF, PLM) [min]",Share present in plasma in free form ([5]; Manach et al. 2005),"Improvement in bioavailability ([5]; coadministration of piperine, Lambert et al. 2004) [%]","Observations under PLM in SGF ([4]; simulated gastric fluid, up to 24 h, B/E = birefringence/extinction, indicates crystallization)","Observations under PLM in SIF ([4]; simulated intestinal fluid, up to 24 h, B/E = birefringence/extinction, indicates crystallization)",Bioavailability [6]
"O=C(O[C@@H]1Cc2c(O)cc(O)cc2O[C@@H]1c1cc(O)c(O)c(O)c1)c1cc(O)c(O)c(O)c1 [cEGCG, epigallocatechin gallate]",approximately 93%,dissolved without visible solids,–,–,–,–,–,–,–,–,–,–,–,–,–
"O=C(O[C@@H]1Cc2c(O)cc(O)cc2O[C@@H]1c1cc(O)c(O)c(O)c1)c1cc(O)c(O)c(O)c1 [aEGCG, epigallocatechin gallate]",~100%,dissolved without visible solids,converted to crystalline EGCG,pink,"very light pink,",immediate dissolution,"pink hard material, agg",highly crystalline material,≤ 15,≤ 15,–,–,–,–,–
"O=C(O[C@@H]1Cc2c(O)cc(O)cc2O[C@@H]1c1cc(O)c(O)c(O)c1)c1cc(O)c(O)c(O)c1 [EGCG, epigallocatechin gallate]",–,–,–,–,–,–,–,–,–,–,77-90%,30,B/E observed in 15 min,B/E observed in 15 min,2-5%

# Reference: patent publication US20200323815A1, “AMORPHOUS DISPERSIONS OF EPIGALLOCATECHIN GALLATE” (AMRI SSCI, LLC, priority 2017, published 2020)
